Assay results taken from US20170266147A1, “METHODS OF INCREASING LATENCY OF ANESTHETIC INDUCTION USING KETONE SUPPLEMENTATION” (priority 2016, published 2017).

Key:
[1] = system: glucose transporter type 1-deficiency (G1D) syndrome mouse model; test: Time until anesthetic induction (isoflurane) in G1D mice; type: in vivo; settings: for time required before anesthetic induction: relative to control mice fed a standard diet, p=0.0003 (KD), p=0.0136 (KS), p=0.0003 (KE), FIG. 4
Experimental: Animals were kept in groups of 2-5 mice under standard laboratory conditions (12 h:12 h light-dark cycle) in climate-controlled rooms at 22.0±2.0° C. Animal treatment and measuring procedures were performed in accordance with the University of South Florida Institutional Animal Care and Use Committee (IACUC) guidelines (Protocol#00000457). All efforts were made to reduce the number of animals used. The rodents were put under anesthesia once a week to perform blood draws.
All data are presented as the mean±standard error of the mean (SEM). The effects of compositions comprising ketone supplements on latency to anesthetic induction, as well as on blood βHB levels, were compared to control and/or baseline levels. Data analysis was performed using GRAPHPAD PRISM v6.0a. Results were considered significant when *p<0.05, **p<0.005, ***p<0.0005. Significance was determined by unpaired t-test.
G1D mice between 3-5 months old were chronically fed a standard rodent chow diet (SD), ketogenic diet (KD) (Table 1), standard rodent chow diet mixed with 20% ketone salt (βHB mineral salt) supplementation (SD+KS), or standard diet mixed with 20% ketone ester (1,3 butanediol-acetoacetate diester) supplementation (SD+KE) for 10 weeks. After 10 weeks, anesthesia was induced in an anesthesia chamber with isoflurane gas mixed with air, and the time until anesthetic induction was measured by a blinded observer. Ketone body levels in the blood were measured immediately after induction of anesthesia with a PRECISION XTRA® blood glucose and ketone monitoring kit.

[2] = Blood levels of βHB after anesthetic induction in Sprague-Dawley rats; type: in vivo, rat; settings: 7 days, relative to baseline levels, p=0.0001 (ketone diet), p=2.21E−05 (ketone salt), FIG. 2
Experimental: (§1) All data are presented as the mean±standard error of the mean (SEM). The effects of compositions comprising ketone supplements on latency to anesthetic induction, as well as on blood βHB levels, were compared to control and/or baseline levels. Data analysis was performed using GRAPHPAD PRISM® v6.0a. Results were considered significant when *p<0.05, **p<0.005, ***p<0.0005. Significance was determined by unpaired t-test.
(§2) Sprague-Dawley rats were fed a standard diet, a ketone diet, or a standard diet supplemented with an oral gavage of the ketone salt βHB mineral salt for 7 days. After 7 days, anesthesia was induced in an anesthesia chamber with isoflurane gas mixed with air, and the time until anesthetic induction was measured by a blinded observer.

Sprague-Dawley rats = test: Time until anesthetic induction (isoflurane) in Sprague-Dawley rats; type: in vivo, rat; settings: 7 days feeding/oral gavage, relative to standard diet fed controls, p=1.32E−6 (ketone diet), p=0.336 (ketone salt), FIG. 1
Experimental: Animals were kept in pairs of 2 rats under standard laboratory conditions (12 h:12 h light-dark cycle) in climate-controlled rooms at 22.0±2.0° C. Animal treatment and measuring procedures were performed in accordance with the University of South Florida Institutional Animal Care and Use Committee (IACUC) guidelines (Protocol#00001749). All efforts were made to reduce the number of animals used.
as §1, §2

## CC(=O)CC(=O)OCCC(C)OC(=O)CC(C)=O (stereo not drawn) [ketone ester, 1,3 butanediol-acetoacetate diester]
[1]; 10 weeks
  time required before anesthetic induction: significant increases
[1]; chronic 10 weeks, 20% in standard diet, relative to baseline levels, p=0.0035, FIG. 3
  number of seconds required before anesthetic induction: significant increase

## βHB mineral salt [ketone salt]
[2]
  blood levels of βHB after anesthetic induction: significant increase
[1]; 10 weeks, relative to animals fed a standard diet, p=0.0048 (KD), p=0.0338 (KS), FIG. 5
  delay in anesthetic induction normalized to body weight: remained significant
[1]; 10 weeks
  time required before anesthetic induction: significant increases
Sprague-Dawley rats
  number of seconds required before anesthetic induction: significant increase
